Data set [1] relates to VAChT. As to conditions: cited from earlier work.
The test system of data set [2] is VAChT. The following applies: cited from earlier work. The source holds these as a separate data set.
For data set [3], the target named is T1, VAChT (Homo sapiens, UniProt Q16572).
T1 sequence (Q16572 1-532): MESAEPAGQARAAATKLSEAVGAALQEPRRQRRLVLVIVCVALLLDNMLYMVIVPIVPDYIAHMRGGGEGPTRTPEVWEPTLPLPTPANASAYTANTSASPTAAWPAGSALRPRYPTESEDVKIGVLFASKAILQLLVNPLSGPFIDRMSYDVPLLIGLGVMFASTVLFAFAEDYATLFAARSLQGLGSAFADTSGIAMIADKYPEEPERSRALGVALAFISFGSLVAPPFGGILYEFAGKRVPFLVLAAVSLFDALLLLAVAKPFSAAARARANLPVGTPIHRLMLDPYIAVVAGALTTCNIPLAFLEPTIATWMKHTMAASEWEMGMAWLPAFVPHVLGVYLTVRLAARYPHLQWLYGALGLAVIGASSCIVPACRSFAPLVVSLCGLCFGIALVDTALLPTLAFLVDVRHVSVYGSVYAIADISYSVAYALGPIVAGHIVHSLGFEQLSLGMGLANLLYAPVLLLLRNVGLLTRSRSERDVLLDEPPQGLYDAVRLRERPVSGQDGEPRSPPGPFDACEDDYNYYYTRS
The data set can be described thus: VAChT competitive binding assay with tritiated vesamicol. The following applies: read-out: Ki-VAChT; tritiated vesamicol as competitive radioligand.

In another data set the target is σ2 receptors. The data set can be described thus: σ2 receptor in vitro binding assay with [3H]DTG.
The target in the next data set is σ1 receptors. The data set can be described thus: σ1 receptor in vitro binding assay with [3H]pentazocine.

Data on 4 compounds can be found in article PMC6221475 (Bioorganic & medicinal chemistry letters, 2018).

A value given as a limit tells only on which side of the number the result lay.

In general, Ki refers to the equilibrium dissociation constant of an inhibitor or competing ligand from its target.

For `O=C(c1ccc(F)cc1)C1CCN(C2Cc3c(cccc3OCC[18F])CC2O)CC1` (single isomer, unassigned; (-)) [[^18F]VAT, (−)-(1-(8-(2-[^18F]fluoroethoxy)-3-hydroxy-1,2,3,4tetrahydro-naphthalen-2-yl)-piperidin-4-yl)(4-fluorophenyl)-methanone], the “standardized uptake value (SUV) at peak uptake” value in the data set with VAChT [1] (NHP brain, at 15 min, ref [23]) is reported as 5.1. Besides, in the data set with VAChT [1] (NHP brain, ref [23]), the “uptake ratio of target (striatum) to non-target (cerebellum)” value was 3.0. Further, the “time of peak uptake in the brain” value in the data set on VAChT [1] (in vivo) is 15 min.
For `OC1Cc2cccc(OCC[18F])c2CC1N1CCC(c2ccccc2)CC1` (single isomer, unassigned; (-)) [[^18F]FEOBV, (−)-5-[^18F]fluoroethoxybenzovesamicol], the “time required to equilibrate in the striatum” value in the data set with VAChT [2] (human, PET, ref [11], [16], [17]) is listed as “over 6 h”.
On to `OC1Cc2cccc([123I])c2CC1N1CCC(c2ccccc2)CC1` (single isomer, unassigned; (-)) [[^123I]IBVM, (−)-5-[^123I]iodo-benzovesamicol], for which, in the data set with VAChT [2] (human subjects, SPECT, ref [10], [13]–[15]), the “time of peak uptake in the target regions post-injection” value was “at least 6 h”.
Consider `O=C(c1ccc(F)cc1)C1CCN(C2Cc3c(O)cccc3CC2O)CC1` (single isomer, unassigned; (-)) [(−)-1, (−)-(1-(3,8-Dihydroxy-1,2,3,4-tetrahydronaphthalen-2-yl)piperidin-4-yl)(4-fluorophenyl)methanone], for which the Ki is 0.00462 ± 0.00022 µM at VAChT [3]; above 10 µM on σ2 receptors (read-out: Ki-σ2, [3H]DTG as radioligand); 2.01 ± 0.45 µM at σ1 receptors (read-out: Ki-σ1, [3H]pentazocine as radioligand). In addition, the VAChT/σ2 in the data set on σ2 receptors (selectivity ratio for VAChT over σ2) worked out at 2165. The VAChT/σ1 with σ1 receptors (selectivity ratio for VAChT over σ1) came out at 435.
